The results in this text go back to patent US12281084B2, “Acetyl-CoA synthetase 2 (ACSS2) inhibitors and methods using same” (The Wistar Institute, priority 2019, dated 2025).

By IC50 is commonly meant the concentration that inhibits the measured activity by half.

The target in the assay is T1, recombinant human ACSS2 (Homo sapiens, UniProt Q9NR19).
T1 construct: purchased Origene TP304260
As to the kind of experiment: ACSS2 biochemical assay (Transcreener AMP assay). As to conditions: in vitro biochemical TranScreener assay; mean±S.D., n≥3 (FIG. 1C). How it is done: ACSS2 enzyme activity was measured using the TRANSCREENER® TRF AMP/GMP assay (Bellbrook Labs). Recombinant ACSS2 was purchased from Origene. The assay was performed in white, opaque, low volume 384 well plates. Test compounds were diluted in 100% DMSO and then 100 nL of each dilution was transferred using the Janus MDT Nanohead to assay plates containing 3 μL ACSS2 (2.5 nM) in assay buffer (30 mM HEPES, pH 7.4, 140 mM NaCl, 2 mM MgCl2, 5 mM sodium acetate, 2 mM DTT, 0.005% Brij35). Three microliters of substrate mix containing 100 μM ATP and 10 μM coenzyme A was added to the plates followed by a 120 min incubation. The final concentrations of enzyme and substrates in the reaction mix was 1.25 nM ACSS2, 50 μM ATP, and 5 μM coenzyme A. After incubation, 3 μL of terbium conjugated AMP antibody and AMP tracer was added to the plates according to the methods described by BellBrook Labs. After an additional 30 min, the HTRF signal was measured using an Envision Plate reader. Data were normalized to % inhibition, where 100% inhibition is equal to the counts obtained in the absence of ACSS2, and 0% inhibition is equal to the counts obtained in the complete reaction including a DMSO control.
A robust biochemical screening assay was set up for testing compounds as potential ACSS2 inhibitors. […]

T1 sequence (Q9NR19 whole entry): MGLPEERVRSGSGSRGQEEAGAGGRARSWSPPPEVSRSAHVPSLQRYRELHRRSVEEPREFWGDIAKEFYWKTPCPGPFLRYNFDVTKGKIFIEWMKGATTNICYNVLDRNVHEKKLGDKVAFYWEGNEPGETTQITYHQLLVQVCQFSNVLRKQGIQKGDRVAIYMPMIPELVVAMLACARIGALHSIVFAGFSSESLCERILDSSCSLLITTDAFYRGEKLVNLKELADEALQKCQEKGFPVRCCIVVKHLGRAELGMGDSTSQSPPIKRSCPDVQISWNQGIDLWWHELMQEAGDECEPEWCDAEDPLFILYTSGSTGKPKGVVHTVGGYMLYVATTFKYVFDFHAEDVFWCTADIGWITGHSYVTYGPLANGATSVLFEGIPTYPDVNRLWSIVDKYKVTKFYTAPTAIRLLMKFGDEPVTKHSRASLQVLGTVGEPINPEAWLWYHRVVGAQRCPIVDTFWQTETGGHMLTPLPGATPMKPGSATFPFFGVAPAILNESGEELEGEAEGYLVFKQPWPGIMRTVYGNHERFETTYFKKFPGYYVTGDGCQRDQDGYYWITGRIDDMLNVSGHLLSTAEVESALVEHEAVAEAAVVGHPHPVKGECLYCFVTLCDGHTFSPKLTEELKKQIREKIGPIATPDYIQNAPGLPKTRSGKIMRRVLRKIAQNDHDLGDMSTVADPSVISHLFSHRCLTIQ

Regarding `COCCNC(=O)Nc1ccc2nc(-c3cccs3)c(-c3cccs3)nc2c1` [VY-3-249, 1-(2,3-di(thiophen-2-yl)quinoxalin-6-yl)-3-(2-methoxyethyl)urea], the IC50 is 1210 ± 128 nM.
